Reference: patent US20030017965A1, “Methods for treating certain diseases using naaladase inhibitors” (priority 1998, published 2003)

Legend:
[1] = target: T1, Myeloperoxidase (MPO) isolated from human polymorphonuclear leukocytes (Homo sapiens, UniProt P05164); conditions: guaiacol substrate, reference data; cited from earlier work
T1 construct: Myeloperoxidase (MPO) isolated from human polymorphonuclear leukocytes; purchased Calbiochem 475911; host or cells: human polymorphonuclear leukocytes (natural source)

[2] = tested on: ischemic cultures; experiment: Neuroprotection in ischemic cell culture model of stroke with neutralizing antibodies; assay type: cell-based; conditions: for neuroprotective effect in presence of FGF antibody: FGF neutralizing antibody added; for neuroprotective effect in presence of TGF-β neutralizing antibodies: TGF-β neutralizing antibodies added
Experimental: (§1) The compounds of the invention were used to produce a neuroprotective effect in both in vitro and in vivo cell culture models of stroke.
TGF-β neutralizing antibodies were then added to determine if the neuroprotective effect would be blocked. The neuroprotective effect of 2-(phosphonomethyl)-pentanedioic acid was blocked by TGF-βs neutralizing bodies in this cell culture model. However, when other growth factor antibodies, such as FGF antibody, were added, the neuroprotective effect of 2-(phosphonomethyl)-pentanedioic acid was not reversed in culture.

[3] = tested on: TGF-β1; experiment: TGF-β1 levels by microdialysis in MCAO rats; assay type: in vivo; conditions: FIG. 6
[4] = tested on: TGF-β1; experiment: TGF-β1 concentration in ischemic cell cultures; assay type: cell-based; conditions: added to ischemic cultures (20-minute ischemia)
Excerpt: as §1

[5] = tested on: TGF-β2; experiment: TGF-β2 concentration in ischemic cell cultures; assay type: cell-based; conditions: added to ischemic cultures (20-minute ischemia)
Excerpt: as §1

[6] = tested on: middle cerebral artery occlusion (MCAO) in rats; experiment: Neuroprotection following middle cerebral artery occlusion (MCAO) in rats; assay type: in vivo
Excerpt: The effect of TGF-β neutralizing antibodies on the neuroprotection afforded by 2-(phosphonomethyl)-pentanedioic acid following middle cerebral artery occlusion (MCAO) in rats was also studied to give a more relevant in vivo model of stroke.
Thus, it was appreciated that the regulation of TGF-βs may have implications, not only in its utility in stroke, but also in other neurological and psychiatric diseases. In addition, this mechanism may have implications in myelination, prostate cancer, inflammation, diabetes, and angiogenesis.

[7] = tested on: mice; experiment: In vivo toxicity study in mice; conditions: for Survival Rate After 5 days (%): injected
Excerpt: The in vivo toxicological effect of NAALADase inhibition has been examined in mice. […] Representative disclosure may be found in U.S. Pat. Nos. 5,672,592, 5,795,877, 5,863,536 and 5,880,112, and allowed U.S. patent applications Ser. Nos. 08/825,997, 08/833,628, 08/835,572 and 08/842,360, for which the issue fees have been paid, the entire contents of which patents and applications are herein incorporated by reference.
The mice were observed two times per day for 5 consecutive days.

[8] = listed as 2-(phosphonomethyl)-pentanedioic acid

T1 sequence (P05164 279-745 limits assumed): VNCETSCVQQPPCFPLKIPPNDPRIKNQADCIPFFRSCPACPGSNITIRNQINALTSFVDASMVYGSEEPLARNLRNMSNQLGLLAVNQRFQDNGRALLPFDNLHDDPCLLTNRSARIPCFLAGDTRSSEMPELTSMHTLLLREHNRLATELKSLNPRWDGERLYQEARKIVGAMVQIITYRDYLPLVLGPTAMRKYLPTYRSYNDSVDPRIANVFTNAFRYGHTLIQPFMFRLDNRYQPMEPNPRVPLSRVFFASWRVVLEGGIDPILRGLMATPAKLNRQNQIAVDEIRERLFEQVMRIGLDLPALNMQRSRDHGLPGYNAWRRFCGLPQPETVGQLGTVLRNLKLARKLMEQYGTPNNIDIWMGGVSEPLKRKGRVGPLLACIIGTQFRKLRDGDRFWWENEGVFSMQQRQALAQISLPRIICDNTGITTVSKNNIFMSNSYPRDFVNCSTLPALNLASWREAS
T1 sequence (P05164 165-273 limits assumed): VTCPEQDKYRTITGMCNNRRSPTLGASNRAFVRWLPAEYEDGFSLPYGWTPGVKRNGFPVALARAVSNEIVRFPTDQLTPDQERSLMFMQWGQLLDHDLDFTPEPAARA

Row | Structure (SMILES) | IC50 [1] | neuroprotective effect in presence of FGF antibody [2, 8] | neuroprotective effect in presence of FGF antibody ([2]; listed as compound 3) | neuroprotective effect in presence of TGF-β neutralizing antibodies [2, 8] | neuroprotective effect in presence of TGF-β neutralizing antibodies ([2]; listed as compound 3) | TGF-β1 during occlusion and reperfusion [3] | level of TGF-β1 [4] | level of TGF-β2 [5] | neuroprotection ([6]; MCAO rats) | neuroprotective effect after TGF-β neutralizing antibodies ([6]; MCAO rats pre-treated with TGF-β neutralizing antibodies, FIG. 5) | Survival Rate After 5 days (%) ([7]; dose 1 mg/kg) | Survival Rate After 5 days (%) ([7]; dose 5 mg/kg) | Survival Rate After 5 days (%) ([7]; dose 10 mg/kg) | Survival Rate After 5 days (%) ([7]; dose 30 mg/kg) | Survival Rate After 5 days (%) ([7]; dose 100 mg/kg) | Survival Rate After 5 days (%) ([7]; dose 300 mg/kg) | Survival Rate After 5 days (%) ([7]; dose 500 mg/kg) | toxicological effect in vivo ([7]; observed for 5 days)
1 | CC(Cc1ccc(O)c(O)c1)C(C)Cc1ccc(O)c(O)c1 (stereo not drawn) [NDGA (Nordihydroguaretic Acid), Nordihydroguaretic Acid] | 1 µM |  |  |  |  |  |  |  |  |  |  |  |  |  |  |  |  | 
2 | O=C(O)CCC(CP(=O)(O)O)C(=O)O (stereo not drawn) [Compound 3, 2-(phosphonomethyl)-pentanedioic acid] |  | not reversed | non-reversal | blocked | reversal | significant rise | increased significantly | increased significantly | provided neuroprotection | significantly attenuated | 100% | 100% | 100% | 100% | 100% | 100% | 66.7% | non-toxic
